From patent US12570687B2, “Triterpenoid compounds, pharmaceutical compositions thereof, and their use for treating a nuclear receptor subfamily 4 group a member 1-mediated disease” (NUCMITO PHARMACEUTICALS COMPANY LIMITED, priority 2019, dated 2026) come the findings set out here.

Each structure is given as a SMILES string. A value given as a limit tells only on which side of the number the result lay.

What all share (type): cell-based
Assay [1] has as its system A375 (malignant melanoma). In words: MTT antiproliferative assay, A375. The following applies: Homo sapiens, A-375, A375, 10 μM, 48 or 72 h, read-out: inhibition of cell growth, A375. In outline: (§1)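 Growth inhibition is graded in bands of percent inhibition at 10 μM, taken from MTT read-out at 490 nm and normalised to vehicle-treated wells. Exposure runs 48 or 72 h at 37° C.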
(In general: Tetrazolium dyes change colour on reduction, which living cells bring about.)

Assay [2] concerns MDA-MB-231 (breast cancer). Briefly: MTT antiproliferative assay, MDA-MB-231. The following applies: Homo sapiens, MDA-MB-231, 10 μM, 48 or 72 h, read-out: inhibition of cell growth, MDA-MB-231. The method, boiled down: as §1
In assay [3] the test system is HeLa (ovarian cancer). In words: MTT antiproliferative assay, HeLa. The following applies: Homo sapiens, 48 or 72 h, read-out: inhibition of cell growth, HELA. The method, boiled down:
as §1

Assay [4] has as its system A431 (epidermoid carcinoma). In words: MTT antiproliferative assay, A431. The following applies: Homo sapiens, A-431, A431, 10 μM, 48 or 72 h, read-out: inhibition of cell growth, A431. The method, boiled down: as §1
Assay [5] has as its system A549 (lung adenocarcinoma). Briefly: MTT antiproliferative assay, A549. The following applies: Homo sapiens, A549, 10 μM, 48 or 72 h, read-out: inhibition of cell growth, A549. The method, boiled down: as §1
Assay [6] concerns HepG2 (liver cancer). In words: MTT antiproliferative assay, HepG2. The following applies: Homo sapiens, HepG2, 10 μM, 48 or 72 h, read-out: inhibition of cell growth, HepG2. In outline:
as §1

In assay [7] the test system is SW620 (colon cancer). In words: MTT antiproliferative assay, SW620. Particulars: Homo sapiens, SW-620, SW620, 10 μM, 48 or 72 h, read-out: inhibition of cell growth, SW620. The method, boiled down: as §1

In the case of `CO[C@]1(C)C(=O)C(=O)C=C2C1=CC=C1[C@@]2(C)CC[C@@]2(C)[C@@H]3C[C@](C)(C(=O)On4nnc5ccccc54)CC[C@]3(C)CC[C@]12C` [Compound A6, 1H-1,2,3-benzotriazol-1-yl (2R,4aS,6aS,9S,12bR,14aS,14bR)-9-methoxy-2,4a,6a,9,12b,14a-hexamethyl-10,11-dioxo-1,2,3,4,4a,5,6,6a,9,10,11,12b,13,14,14a,14b-hexadecahydropicene-2-carboxylate], the inhibition at 10 µM in assay [1] was 30 to 50%; in assay [2], 50 to 80%; in assay [3], at least 80%; in assay [4], 50 to 80%; in assay [5], 50 to 80%; in assay [6] it was at least 80%. The inhibition at 10 µM in assay [7] lay in the range of 50 to 80%.
For the molecule `CO[C@@]1(C)C2=CC=C3[C@@](C)(CC[C@@]4(C)[C@@H]5C[C@](C)(C(N)=O)CC[C@]5(C)CC[C@]34C)C2=CC(=O)/C1=C\C#N` [Compound A59, (2R,4aS,6aS,9S,10Z,12bR,14aS,14bR)-10-(cyanomethylidene)-9-methoxy-2,4a,6a,9,12b,14a-hexamethyl-11-oxo-1,2,3,4,4a,5,6,6a,9,10,11,12b,13,14,14a,14b-hexadecahydropicene-2-carboxamide], the inhibition at 10 µM in assay [1], in assay [2], in assay [3], in assay [4], in assay [5] and in assay [6] was at least 80% each time. Further, in assay [7], the inhibition at 10 µM is at least 80%.
For `CO[C@@]1(C)C2=CC=C3[C@@](C)(CC[C@@]4(C)[C@@H]5C[C@](C)(C(=O)NO)CC[C@]5(C)CC[C@]34C)C2=CC2(O)OCCN=C21` (stereo partly drawn) [Compound A47, (2R,4aS,6aS,9S,14bR,16aS,16bR)—N,13a-dihydroxy-9-methoxy-2,4a,6a,9,14b,16a-hexamethyl-2,3,4,4a,5,6,6a,9,11,12,13a,14b,15,16,16a,16b-hexadecahydro-1H-piceno[2,3-b][1,4]oxazine-2-carboxamide], the inhibition at 10 µM was 30 to 50% in assay [1]; at least 80% in assay [2]; at least 80% in assay [3]; at least 80% in assay [4]; at least 80% in assay [5]; at least 80% in assay [6]. Besides, the inhibition at 10 µM in assay [7] was in the range of 50 to 80%.
Consider `COC(=O)[C@]1(C)CC[C@]2(C)CC[C@]3(C)C4=CC=C5C(=CC(=O)C(=O)C5(C)c5c[nH]c6ccccc56)[C@]4(C)CC[C@@]3(C)[C@@H]2C1` (stereo partly drawn) [Compound A4, methyl (2R,4aS,6aS,12bR,14aS,14bR)-9-(1H-indol-3-yl)-2,4a,6a,9,12b,14a-hexamethyl-10,11-dioxo-1,2,3,4,4a,5,6,6a,9,10,11,12b,13,14,14a,14b-hexadecahydropicene-2-carboxylate], for which the inhibition at 10 µM in assay [1] was 50 to 80%; in assay [2], 30 to 50%; in assay [3], at least 80%; in assay [4] it was at least 80%; in assay [5], 50 to 80%; in assay [6], 50 to 80%. The inhibition at 10 µM in assay [7] lay in the range of 50 to 80%.
As for `COC(=O)[C@]1(C)CC[C@]2(C)CC[C@]3(C)C4=CC=C5C(=CC(=O)/C(=C/C#N)C5(C)O)[C@]4(C)CC[C@@]3(C)[C@@H]2C1` (stereo partly drawn) [Compound A34, methyl (2R,4aS,6aS,10E,12bR,14aS,14bR)-10-(cyanomethylidene)-9-hydroxy-2,4a,6a,9,12b,14a-hexamethyl-11-oxo-1,2,3,4,4a,5,6,6a,9,10,11,12b,13,14,14a,14b-hexadecahydropicene-2-carboxylate], the inhibition at 10 µM in assay [1] is 50 to 80%; in assay [2], at least 80%; in assay [3], at least 80%; in assay [4], 50 to 80%; in assay [5], 50 to 80%; in assay [6], at least 80%. Moreover, the inhibition at 10 µM in assay [7] is at least 80%.

One may read the inhibition as the percentage by which the read-out fell short of the control.
